Measurements published in ChEMBL document CHEMBL4177594, “Design, synthesis, and evaluation of salicyladimine derivatives as multitarget-directed ligands against Alzheimer's disease” (Bioorg Med Chem, 2017).
pIC50: −log10 of the molar value. The source made the active and inactive calls. No cut-off for these calls is given here.

What was measured:
in vitro = assay: in vitro; parameters: dose or concentration left out as unconfirmed; conditions: PAMPA
Description: Permeability of the compound at 100 mg/ml after 16 hrs by BBB-PAMPA method

[1] = target: T1, Amine oxidase [flavin-containing] A (Homo sapiens, UniProt P21397); assay: Inhibition of human MAO-A at 200 uM using p-tyramine as substrate preincubated for 15 mins followed by substrate addition measured after 20 mins by fluorescence-based Amplex Red MAO assay
T1 sequence (P21397 whole entry): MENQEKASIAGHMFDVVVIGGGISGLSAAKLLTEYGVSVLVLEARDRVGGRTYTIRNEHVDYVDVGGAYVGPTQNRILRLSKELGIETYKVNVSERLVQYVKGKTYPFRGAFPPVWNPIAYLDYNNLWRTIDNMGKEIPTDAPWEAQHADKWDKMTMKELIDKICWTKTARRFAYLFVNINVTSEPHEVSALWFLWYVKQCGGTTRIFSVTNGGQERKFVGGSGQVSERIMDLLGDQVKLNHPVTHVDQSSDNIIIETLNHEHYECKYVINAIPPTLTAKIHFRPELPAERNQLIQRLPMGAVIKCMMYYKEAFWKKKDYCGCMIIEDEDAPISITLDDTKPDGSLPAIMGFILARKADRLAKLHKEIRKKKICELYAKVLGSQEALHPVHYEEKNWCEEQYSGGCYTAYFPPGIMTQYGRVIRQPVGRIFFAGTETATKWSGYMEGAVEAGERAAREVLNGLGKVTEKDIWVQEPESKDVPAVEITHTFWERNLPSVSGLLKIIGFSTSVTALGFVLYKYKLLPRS

[2] = target: T2, Amine oxidase [flavin-containing] B (Homo sapiens, UniProt P27338); assay: Inhibition of human MAO-B using p-tyramine as substrate preincubated for 15 mins followed by substrate addition measured after 20 mins by fluorescence-based Amplex Red MAO assay
T2 sequence (P27338 whole entry): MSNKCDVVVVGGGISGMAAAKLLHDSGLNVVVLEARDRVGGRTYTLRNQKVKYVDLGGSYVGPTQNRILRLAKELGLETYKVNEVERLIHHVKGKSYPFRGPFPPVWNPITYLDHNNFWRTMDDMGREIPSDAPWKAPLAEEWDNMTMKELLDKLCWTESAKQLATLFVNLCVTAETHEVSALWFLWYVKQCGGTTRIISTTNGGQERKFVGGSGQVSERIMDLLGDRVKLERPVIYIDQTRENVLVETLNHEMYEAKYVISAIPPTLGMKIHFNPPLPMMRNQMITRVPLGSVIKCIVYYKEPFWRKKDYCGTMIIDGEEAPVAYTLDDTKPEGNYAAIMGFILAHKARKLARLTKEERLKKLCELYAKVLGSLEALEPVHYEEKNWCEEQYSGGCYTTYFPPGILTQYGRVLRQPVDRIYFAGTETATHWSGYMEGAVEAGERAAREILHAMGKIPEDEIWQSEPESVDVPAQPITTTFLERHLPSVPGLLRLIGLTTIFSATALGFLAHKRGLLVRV

[3] = Antioxidant activity assessed as DPPH radical scavenging activity after 30 mins; type: functional
Homo sapiens = organism: Homo sapiens; assay: Selectivity index, ratio of IC50 for human MAO-A to IC50 for human MAO-B
PC-12 [4] = assay: Cytotoxicity against rat PC12 cells at 25 uM after 24 hrs by MTT assay; type: cell-based; conditions: pc-12, 24 h
[5] = target: Amyloid-beta precursor protein (Homo sapiens) (UniProt P05067); assay: Inhibition of self-induced aggregation of amyloid beta (1 to 42 residues) (unknown origin) at 25 uM incubated for 48 hrs by Thioflavin T fluorescence assay relative to control
[6] = Antioxidant activity assessed as ABTS radical scavenging activity at 25 uM after 6 mins; type: functional
[7] = target: T1, Amine oxidase [flavin-containing] A; assay: Inhibition of human MAO-A using p-tyramine as substrate preincubated for 15 mins followed by substrate addition measured after 20 mins by fluorescence-based Amplex Red MAO assay
PC-12 [8] = assay: Neuroprotective activity against H2O2-induced cytotoxicity in rat PC12 cells assessed as increase in cell viability at 25 uM preincubated for 24 hrs followed by H2O2 addition and measured after 24 hrs by MTT assay; type: functional, cell-based

Chain of Amyloid-beta precursor protein (Homo sapiens) (P05067 whole entry, the tested form may be a part): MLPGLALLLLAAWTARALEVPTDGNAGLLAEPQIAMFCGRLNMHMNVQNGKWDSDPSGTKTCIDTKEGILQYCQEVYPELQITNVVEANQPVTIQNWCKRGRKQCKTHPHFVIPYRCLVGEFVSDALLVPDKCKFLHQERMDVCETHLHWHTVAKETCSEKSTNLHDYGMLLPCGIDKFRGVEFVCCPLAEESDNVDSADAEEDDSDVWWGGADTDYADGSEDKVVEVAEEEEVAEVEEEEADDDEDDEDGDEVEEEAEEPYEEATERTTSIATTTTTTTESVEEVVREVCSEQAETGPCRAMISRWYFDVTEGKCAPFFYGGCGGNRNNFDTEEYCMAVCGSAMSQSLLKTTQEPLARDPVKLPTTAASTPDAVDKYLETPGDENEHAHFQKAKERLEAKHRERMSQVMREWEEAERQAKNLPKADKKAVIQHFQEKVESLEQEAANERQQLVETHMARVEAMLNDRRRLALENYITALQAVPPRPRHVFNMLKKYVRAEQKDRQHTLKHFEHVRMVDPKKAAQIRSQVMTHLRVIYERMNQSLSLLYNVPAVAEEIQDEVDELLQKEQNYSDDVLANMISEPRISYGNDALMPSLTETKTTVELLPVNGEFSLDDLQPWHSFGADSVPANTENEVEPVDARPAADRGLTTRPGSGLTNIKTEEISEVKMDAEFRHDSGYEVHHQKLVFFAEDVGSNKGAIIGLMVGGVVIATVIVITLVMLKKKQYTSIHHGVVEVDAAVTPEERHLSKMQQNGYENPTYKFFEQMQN

inhibition (INH) [1] | pIC50 [2] | pIC50 [3] | Ratio IC50 (Homo sapiens) | inhibition [5] [%] | pIC50 [7] | SMILES | Papp at 16 h (in vitro) [×10⁻⁶ cm/s] | Activity (PC-12 [4]) | Activity (umolequiv/umol) [6] | Activity (PC-12 [8])
– | – | – | – | – | – | CCn1cc(C(=O)O)c(=O)c2cc(F)c(N3CCNC(C)C3)c(F)c21 (configuration not stated) [LOMEFLOXACIN] | 1.59 | – | – | –
Not Active | 4.63 | < 3.70 | > 4.24 | 69.5 | – | COc1ccc(/C=N/c2ccc(OCc3ccccc3)cc2)c(O)c1 | – | Non-Toxic | – | –
Not Active | 4.61 | < 3.70 | > 4.03 | 59.6 | – | Oc1ccc(Cl)cc1/C=N/c1ccc(OCc2ccccc2)cc1 | – | Non-Toxic | – | –
– | 5.16 | 4.88 | 1.66 | 72.5 | 4.94 | Oc1cccc(/C=N/c2ccc(OCc3ccccc3)cc2)c1O | – | Non-Toxic | 0.6 | Active
Not Active | 5.19 | < 3.70 | > 15.4 | 53.4 | – | COc1cccc(/C=N/c2ccc(OCc3ccccc3)cc2)c1O | – | Non-Toxic | – | –
– | – | – | – | – | – | C[C@]12CC[C@@H]3c4ccc(O)cc4CC[C@H]3[C@@H]1CC[C@@H]2O [ESTRADIOL] | 9.17 | – | – | –
Not Active | 4.72 | < 3.70 | > 5.22 | 73.1 | – | Oc1ccc2ccccc2c1/C=N/c1ccc(OCc2ccccc2)cc1 | – | Non-Toxic | – | –
Not Active | 4.82 | < 3.70 | > 6.54 | 84.4 | – | Oc1ccc(F)cc1/C=N/c1ccc(OCc2ccccc2)cc1 | – | Non-Toxic | – | –
Not Active | 4.81 | < 3.70 | > 6.47 | 53.7 | – | Cc1cccc(/C=N/c2ccc(OCc3ccccc3)cc2)c1O | – | Non-Toxic | – | –
Not Active | 4.96 | < 3.70 | > 9.23 | 66.7 | – | Oc1c(Br)cc(Br)cc1/C=N/c1ccc(OCc2ccccc2)cc1 | – | Non-Toxic | – | –
Not Active | 4.99 | 4.62 | > 9.86 | 88.5 | – | Oc1cc(O)c(/C=N/c2ccc(OCc3ccccc3)cc2)c(O)c1 | – | Non-Toxic | 0.69 | inactive
– | – | 4.08 | – | – | – | Oc1ccc(/C=C/c2cc(O)cc(O)c2)cc1 [RESVERATROL] | – | – | 1.57 | –
Not Active | 4.50 | < 3.70 | > 3.15 | 54.3 | – | Oc1ccc(Br)cc1/C=N/c1ccc(OCc2ccccc2)cc1 | – | Non-Toxic | – | –
Not Active | 5.17 | < 3.70 | > 14.8 | 59.8 | – | Oc1ccc(/C=N/c2ccc(OCc3ccccc3)cc2)c(O)c1 | – | Non-Toxic | – | –
Not Active | 4.61 | < 3.70 | > 4.09 | 60.1 | – | Cc1ccc(/C=N/c2ccc(OCc3ccccc3)cc2)c(O)c1 | – | Non-Toxic | – | –
Not Active | 4.61 | < 3.70 | > 4.06 | 61.9 | – | Cc1ccc(O)c(/C=N/c2ccc(OCc3ccccc3)cc2)c1 | – | Non-Toxic | – | –
Not Active | 4.97 | < 3.70 | > 9.34 | 56.6 | – | COc1ccc(O)c(/C=N/c2ccc(OCc3ccccc3)cc2)c1 | – | Non-Toxic | – | –
Not Active | 4.22 | < 3.70 | > 1.64 | 70.2 | – | O=[N+]([O-])c1ccc(O)c(/C=N/c2ccc(OCc3ccccc3)cc2)c1 | – | Non-Toxic | – | –
Not Active | 4.60 | < 3.70 | > 3.98 | 63.3 | – | Oc1ccccc1/C=N/c1ccc(OCc2ccccc2)cc1 | – | Non-Toxic | – | –
– | 5.91 | 4.67 | 15.3 | 49.2 | 4.73 | Oc1ccc(O)c(/C=N/c2ccc(OCc3ccccc3)cc2)c1 | – | Non-Toxic | 0.97 | Active
